Experiments:
[1] = molecular target: T1, tubulin (Bos taurus, UniProt P81947+Q6B856); experiment: Tubulin binding assay (quenching of intrinsic tryptophan fluorescence); set-up: species or system bovine
T1 construct: Tubulin devoid of microtubule-associated proteins (MAPs) was purified from bovine brain; from tissue; host or cells: bovine brain
Method: Tubulin devoid of microtubule-associated proteins (MAPs) was purified from bovine brain by cycles of temperature-dependent polymerization and depolymerization as described previously followed by phosphocellulose chromatography. The concentration of the tubulin was determined by the method of Bradford using BSA as the standard. Purified tubulin was quickly frozen as drops in liquid nitrogen and stored at - 80 °C until used.
Noscapinoids quench the […] intrinsic tryptophan fluorescence of tubulin in a concentration-dependent fashion as described previously. This has allowed an easy method for measuring the tubulin-noscapinoids interactions. Briefly, the compounds 5a, 6a-j (0-200 µM) were incubated with 2 µM tubulin in PEM buffer (100 mM PIPES, pH 6.8, 3 mM MgSO4, and 1 mM EGTA) at 37 °C for 45 min. After incubation, the samples were excited at 295 nm. The relative intrinsic fluorescence intensity of the tubulin was then monitored in the absence and presence of the compound 5a, 6a-j using a Varian Cary Eclipse Fluorescence Spectrophotometer (Agilent Technologies, CA, USA). The emission readings were recorded at 335 nm. We used a 0.3 cm path-length cuvette to minimize the inner filter effects caused by the absorbance of the noscapinoids. In addition, the inner filter effects were corrected using a formula F corrected = F observed·antilog [(A ex + A em)/2], where A ex is the absorbance at the excitation wavelength and A em is the absorbance at the emission wavelength. The equilibrium dissociation constant (KD) was determined by the formula: 1/a = KD/[free ligand] + 1, where a is the fractional occupancy and [free ligand] is the concentration of free ligand. The fractional occupancy (a) was determined by the formula a = ΔF/ΔF max, where ΔF is the change in fluorescence intensity when tubulin and its ligand are in equilibrium and ΔF max is the value of maximum fluorescence change when tubulin is completely bound with its ligand. ΔF max was calculated by plotting 1/ΔF versus 1/ligand, using total ligand concentration as the first estimate of free ligand concentration. Three independent experiments were performed for each noscapinoid.

[2] = test system: human lymphoblast cell line (CEM); experiment: In vitro cell proliferation assay (SRB), CEM; assay type: cell-based; details: 72 h, mean ± S.D.
Method: (§1) The cell proliferation assay was performed in 96-well plates as described previously. A panel of four cancer cell lines of different tissues of origins, namely: human lung adenocarcinoma epithelial cell line (A549), human lymphoblast cell line (CEM), human cervix cell line (HeLa) and human breast epithelial cell line (MCF-7) were studied. These cell lines were obtained from the National Repository of Animal Cell Culture, National Centre for Cell Sciences, Pune (NCCS), India. Briefly, 2 x10^3 cells were seeded in each well and were incubated with gradient concentrations of 5a, 6a-j compounds for 72 h. The cells were then fixed with 50% trichloroacetic acid and stained with 0.4% sulforhodamine B (SRB) dissolved in 1% acetic acid. Cells were then washed with1% acetic acid to remove excess (unbound) SRB. The protein-bound SRB was dissolved with 10 mM Tris base and the absorbance at 564 nm was determined using a SPECTRAmax PLUS 384 microplate spectrophotometer.

[3] = test system: human cervix cell line (HeLa); experiment: In vitro cell proliferation assay (SRB), HeLa; assay type: cell-based; details: 72 h, mean ± S.D.
Method: as §1

[4] = test system: human lung adenocarcinoma epithelial cell line (A549); experiment: In vitro cell proliferation assay (SRB), A549; assay type: cell-based; details: 72 h, mean ± S.D.
Method: as §1

[5] = test system: human breast epithelial cell line (MCF-7); experiment: In vitro cell proliferation assay (SRB), MCF-7; assay type: cell-based; details: MCF7, 72 h, mean ± S.D.
Method: as §1

[6] = test system: cancer cells of different tissues of origin (CEM, HeLa, A549, MCF-7); experiment: In vitro cell proliferation assay (SRB), panel of four cancer cell lines; assay type: cell-based; details: Homo sapiens; range over cancer cells of different tissues of origin
Method: as §1

[7] = test system: MCF-7 cells; experiment: Cell cycle analysis by flow cytometry (propidium iodide); assay type: cell-based, human; details: MCF-7, 25 µM
Method: The flow cytometric evaluation of the cell cycle status was performed as described previously. Briefly, cells (2 x 10^6) treated with the noscapinoids up to 72 h were centrifuged, washed twice with cold PBS, and fixed in 70% ethanol. Tubes containing the cell pellets were stored at 4 °C for minimum of 24 h. Cells were then centrifuged at 1000 x g for 10 min and the supernatant was discarded. The pellets were washed twice with 5 ml of PBS and then stained with 0.5 ml of propidium iodide (0.1% of Pl + 0.6% Triton-X in PBS) and 0.5 ml of RNase A (2 mg/ml) for 45 minutes in dark. Samples were then analyzed on a FACS Calibur flow cytometer ([…]).

T1 sequence (Q6B856 whole entry): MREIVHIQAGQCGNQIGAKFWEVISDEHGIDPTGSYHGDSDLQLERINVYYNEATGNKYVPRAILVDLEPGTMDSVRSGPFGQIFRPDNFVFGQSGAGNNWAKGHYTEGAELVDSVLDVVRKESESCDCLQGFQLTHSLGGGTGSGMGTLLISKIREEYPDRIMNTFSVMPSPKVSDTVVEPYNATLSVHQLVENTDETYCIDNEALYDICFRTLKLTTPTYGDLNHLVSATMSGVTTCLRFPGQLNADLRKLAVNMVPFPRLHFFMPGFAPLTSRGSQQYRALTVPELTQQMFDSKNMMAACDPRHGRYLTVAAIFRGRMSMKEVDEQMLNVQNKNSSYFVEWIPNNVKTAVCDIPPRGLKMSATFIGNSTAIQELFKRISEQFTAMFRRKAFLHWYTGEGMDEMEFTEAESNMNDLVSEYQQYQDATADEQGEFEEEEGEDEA
T1 sequence (P81947 whole entry): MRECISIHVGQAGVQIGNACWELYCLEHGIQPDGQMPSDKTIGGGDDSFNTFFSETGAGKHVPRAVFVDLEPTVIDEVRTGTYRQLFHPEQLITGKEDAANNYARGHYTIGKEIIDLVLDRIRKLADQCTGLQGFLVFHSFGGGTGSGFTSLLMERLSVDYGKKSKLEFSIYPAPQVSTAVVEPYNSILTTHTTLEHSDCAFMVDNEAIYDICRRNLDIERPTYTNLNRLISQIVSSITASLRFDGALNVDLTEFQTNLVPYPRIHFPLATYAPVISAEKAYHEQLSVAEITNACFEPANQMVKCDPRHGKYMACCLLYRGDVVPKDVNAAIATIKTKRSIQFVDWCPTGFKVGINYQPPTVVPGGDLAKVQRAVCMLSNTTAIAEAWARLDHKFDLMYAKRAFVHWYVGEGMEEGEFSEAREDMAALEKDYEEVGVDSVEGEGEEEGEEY

COc1ccc2c(c1OC)C(=O)O[C@@H]2[C@H]1c2c(cc3c(c2OC)OCO3)CCN1Cc1cccc(Br)c1 [Compound 6f, (S)-3-((R)-6-(3-bromobenzyl)-4-methoxy-5,6,7,8-tetrahydro-[1,3]dioxolo[4,5-g]isoquinolin-5-yl)-6,7-dimethoxyisobenzofuran-1(3H)-one]
Kd ([1]; 2 µM tubulin, PEM buffer pH 6.8, 37 °C, 45 min, mean ± S.D.): 38 ± 4 µM
Experimental ΔGbind ([1]; calculated from KD, ΔGbind = RT ln KD, T = 298 K): -6.036 kcal/mol
Tubulin binding affinity relative to the parent compound noscapine ([1]; ratio of KD values): ~ 4.0 times
IC50 [2]: 6.7 ± 0.3 µM
IC50 [3]: 15.3 ± 0.5 µM
IC50 [4]: 26.9 ± 1.4 µM
IC50 [5]: 24.5 ± 0.8 µM
IC50 [6]: 6.7 to 26.9 µM
Cell cycle parameters % G0/G1, 24 hours ([7]; 24 hours): 11.82%
Cell cycle parameters % G2/M, 24 hours ([7]; 24 hours): 67.48%
Cell cycle parameters % S, 24 hours ([7]; 24 hours): 6.29%
Cell cycle parameters % Sub-G1, 24 hours ([7]; 24 hours): 9.47%
Cell cycle parameters % G0/G1, 72 hours ([7]; 72 hours): 6.38%
Cell cycle parameters % G2/M, 72 hours ([7]; 72 hours): 37.29%
Cell cycle parameters % S, 72 hours ([7]; 72 hours): 4.72%
Cell cycle parameters % Sub-G1, 72 hours ([7]; 72 hours): 50.44%
melting point: 65 °C

Source: PMC3804772, “Rational Design, Synthesis, and Biological Evaluation of Third Generation α-Noscapine Analogues as Potent Tubulin Binding Anti-Cancer Agents” (PLoS ONE, 2013)
